Tests used:
pSTAT3 (Tyr705) = test: Western blot of pSTAT3 (Tyr705) in BV2 microglia cells; assay type: cell-based, mouse; conditions: C16 1 μM
Experimental: BV2 cells were pre-treated with vehicle or C16 (1 μM) for 2 hours and then incubated with vehicle or oHSV-1 (G207) at an MOI of 1 or oHSV-1 and C16 combination for 24 hours. Total protein was harvested and subjected to western blot assay. β-actin expression was used for loading control (means±SE).
BV2 cells were treated with either vehicle or Lps (1 μg/ml) or Lps (1 μg/ml) with C16 (1 μM) for 24 hours. Total protein was harvested and subjected to western blot assay. β-actin expression was used for loading control (means±SE).
Total protein was harvested with sample buffer (125 mM Tris-HCL, 50% Glycerol, […] and 5% 2-mercaptoethanol) and boiled for 5 minutes. Protein samples were subjected to SDS-PAGE (8% gel), transferred to nitrocellulose membranes and blocked in 5% nonfat milk (Bio Rad) in TBS-Tween 20 (TBS-T) for 1 hour at room temperature. […] Band density was measured by using ImageJ software (NIH, Bethesda, Md.).

ICP27 = test: Western blot of ICP27 in HrR3 infected U87 cells; assay type: cell-based, HSV-1; conditions: 0.5 μM, 1 μM and 10 μM nifuroxazide, HrR3 MOI-3, 24 hours
Experimental: (§1) FIGS. 4A-4C show the effect of nifuroxazide on HSV-1 gene expression. (FIG. 4A) U87 cells were treated with HrR3 viruses at a MOI-3 and indicated doses of nifuroxazide. 24 hours post infected, total protein was extracted and subjected to western blot analysis. (FIG. 4B) U87 cells were treated with HrR3 at a MOI-5 and indicated concentration of nifuroxazide for 6 hours. ICP27 mRNA level was detected by RT-qPCR. (FIG. 4C) Relative mRNA level (2^−ΔΔCT) is shown. Data are presented as mean SD, *P<0.05 vs corresponding vehicle treatment.
(§2) In this example, the underlying mechanism of nifuroxazide mediated oHSV-1 replication enhancement was examined. The effect of nifuroxazide on viral immediate early gene, ICP27 and ICP4 expression was established by Western blot analysis.

ICP4 = test: Western blot of ICP4 in HrR3 infected U87 cells; assay type: cell-based, HSV-1; conditions: 0.5 μM, 1 μM and 10 μM nifuroxazide, HrR3 MOI-3, 24 hours
Experimental: as §1, §2

pSTAT3 = molecular target: T1, pSTAT3 (Homo sapiens, UniProt P40763); test: Western blot of phosphorylated STAT3 in harvested U87 tumour tissues; assay type: in vivo, mice; conditions: HrR3 with 50 mg/kg or 100 mg/kg NF i.p., day 10
T1 construct: from tissue; host or cells: subcutaneous U87 tumours harvested from mice
Experimental: (§3) FIGS. 19A-C show STAT inhibition by the combination of NF and oHSV-1. FIG. 19A and FIG. 19B, U87 cells (A) or CT26 cells (B) were treated with the indicated concentrations of HrR3 or NF or a combination. Total protein was extracted after 24 hours and subjected to western blot analysis. Band intensity was measured using Image J software and normalized to β-actin. Samples were run in triplicate and data are as means±S.E. Statistically significant differences are indicated by P<0.05 or P<0.01. FIG. 19C, Mice subcutaneously bearing U87 tumors were intratumorally injected with a single dose of HrR3 virus (1×10^6 PFU) and/or peritoneally injected doses of NF as indicated. Tumors were harvested on day 10 post treatment and total protein was extracted from a mouse of each treatment group and subjected to western blot analysis in triplicate. Results are reported as means±S.E.
To further confirm that NF is able to inhibit STAT activation in vivo, subcutaneously implanted U87 tumours were treated with either HrR3 alone or in combination with 50 mg/kg NF or 100 mg/kg NF. Expression levels of phosphorylated STAT1/3 in harvested tumour tissues were measured by western blotting.

STAT1 = molecular target: T2, STAT1 (Mus musculus, UniProt P42225); test: Western blot of STAT1 phosphorylation in CT26 cells; assay type: cell-based; conditions: 24 hours
T2 construct: Total protein was extracted after 24 hours and subjected to western blot analysis; endogenous in cells; host or cells: CT26 cells, with or without HrR3 infection
Experimental: as §3, with “FIG.” for “FIGS. 19A-C show STAT inhibition by the combination of NF and oHSV-1. FIG.”
NF is a known inhibitor of STAT1 and STAT3. To evaluate the underlying molecular mechanism of the anti-tumour effect of the NF and oHSV-1 combination, the STAT1 and STAT3 status in U87 cells (FIG. 19A) and CT26 cells (FIG. 19B) cells was determined after an overnight treatment with NF and oncolytic viruses.

T2 sequence (P42225 whole entry): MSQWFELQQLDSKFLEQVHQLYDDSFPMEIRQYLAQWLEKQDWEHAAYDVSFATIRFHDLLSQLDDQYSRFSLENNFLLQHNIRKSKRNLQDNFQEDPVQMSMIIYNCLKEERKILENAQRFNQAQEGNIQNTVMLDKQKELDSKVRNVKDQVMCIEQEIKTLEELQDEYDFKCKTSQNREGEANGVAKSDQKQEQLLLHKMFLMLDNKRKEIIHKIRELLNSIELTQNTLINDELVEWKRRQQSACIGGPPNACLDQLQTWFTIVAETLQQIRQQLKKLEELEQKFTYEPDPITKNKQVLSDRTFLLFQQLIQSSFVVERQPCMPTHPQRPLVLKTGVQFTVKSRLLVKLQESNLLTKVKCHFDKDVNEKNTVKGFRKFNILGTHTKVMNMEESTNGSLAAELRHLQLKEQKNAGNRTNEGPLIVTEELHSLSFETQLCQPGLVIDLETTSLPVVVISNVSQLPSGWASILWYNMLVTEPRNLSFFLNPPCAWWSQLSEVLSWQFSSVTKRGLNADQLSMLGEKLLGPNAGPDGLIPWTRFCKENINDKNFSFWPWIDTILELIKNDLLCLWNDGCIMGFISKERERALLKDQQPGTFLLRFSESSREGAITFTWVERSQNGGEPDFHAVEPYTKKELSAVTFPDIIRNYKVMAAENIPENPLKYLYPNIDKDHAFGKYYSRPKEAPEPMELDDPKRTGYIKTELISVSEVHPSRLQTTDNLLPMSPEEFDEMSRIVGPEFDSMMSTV
T1 sequence (P40763 whole entry): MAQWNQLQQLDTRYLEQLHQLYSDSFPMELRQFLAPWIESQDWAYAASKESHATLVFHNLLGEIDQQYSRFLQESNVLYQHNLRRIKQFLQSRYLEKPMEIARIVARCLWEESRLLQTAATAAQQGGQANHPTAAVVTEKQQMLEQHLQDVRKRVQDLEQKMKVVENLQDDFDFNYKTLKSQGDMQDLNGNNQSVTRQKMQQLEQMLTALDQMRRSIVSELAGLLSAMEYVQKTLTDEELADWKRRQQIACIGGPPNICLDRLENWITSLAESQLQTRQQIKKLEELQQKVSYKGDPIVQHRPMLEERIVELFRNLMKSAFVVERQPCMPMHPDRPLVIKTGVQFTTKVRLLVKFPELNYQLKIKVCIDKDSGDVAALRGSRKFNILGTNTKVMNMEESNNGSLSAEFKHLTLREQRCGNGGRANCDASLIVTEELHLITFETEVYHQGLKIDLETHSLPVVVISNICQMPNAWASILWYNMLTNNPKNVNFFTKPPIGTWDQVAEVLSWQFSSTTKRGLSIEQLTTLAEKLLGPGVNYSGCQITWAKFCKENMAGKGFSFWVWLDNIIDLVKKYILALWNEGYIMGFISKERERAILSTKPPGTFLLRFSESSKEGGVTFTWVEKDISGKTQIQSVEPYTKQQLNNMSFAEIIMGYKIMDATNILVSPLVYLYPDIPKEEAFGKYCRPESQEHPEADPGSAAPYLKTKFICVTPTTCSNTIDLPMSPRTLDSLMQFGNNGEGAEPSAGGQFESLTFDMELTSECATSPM

| Compound | upregulation of pSTAT3 (Tyr705) induced by oHSV-1 (pSTAT3 (Tyr705); G207 MOI of 1, 24 hours) | STAT 3 phosphorylation, LPS treated (pSTAT3 (Tyr705); Lps 1 μg/ml, 24 hours) | ICP27 expression (ICP27) | ICP4 expression (ICP4) | virally induced upregulation of pSTAT3 (pSTAT3) | HrR3 induced upregulation of STAT1 phosphorylation (STAT1) | phosphorylation of STAT1 (STAT1; NF alone) |
| --- | --- | --- | --- | --- | --- | --- | --- |
| O=C1Nc2ccc3ncsc3c2/C1=C/c1c[nH]cn1 [C16, 6,8-Dihydro-8-(1H-imidazol-5-ylmethylene)-7H-pyrrolo[2,3-g]benzothiazol-7-one] | significantly suppress the upregulation | inhibition in STAT 1/3 phosphorylation | – | – | – | – | – |
| O=C(N/N=C/c1ccc([N+](=O)[O-])o1)c1ccc(O)cc1 [nifuroxazide, Benzoic acid, 4-hydroxy-, [(5-nitro-2-furanyl)metylene]hydrazide] | – | – | significantly increases ICP27 expression | not ICP4 expression | inhibited in a dose-dependent fashion | effectively suppressed | dose dependent inhibition |

Reference: patent US20190307820A1, “COMPOSITIONS AND METHODS OF USING STAT1/3 INHIBITORS WITH ONCOLYTIC HERPES VIRUS” (priority 2016, published 2019)
